Reference: patent EP4792811A1, “S1PR4 REGULATOR COMPOUND FOR MUSCLE DISEASE TREATMENT AND APPLICATION THEREOF” (Shengyuan Zetong (Shanghai) Pharmaceutical Co., Ltd, priority 2023, dated 2025)
Entries after “also recorded” stand apart in the source; their conditions may differ.

What was measured:
hS1P4 = target: T1, hS1P4 (Homo sapiens, UniProt O95977); experiment: Tango β-arrestin recruitment assay, Tango-hS1P4-CHO; format: cell-based; conditions: final concentration 45 µM, 9 serial dilutions at 5-fold intervals; 20 h drug treatment; luciferase readout
T1 construct: expressed in transfected cells; host or cells: CHO-K1
T1 sequence (O95977 1-384): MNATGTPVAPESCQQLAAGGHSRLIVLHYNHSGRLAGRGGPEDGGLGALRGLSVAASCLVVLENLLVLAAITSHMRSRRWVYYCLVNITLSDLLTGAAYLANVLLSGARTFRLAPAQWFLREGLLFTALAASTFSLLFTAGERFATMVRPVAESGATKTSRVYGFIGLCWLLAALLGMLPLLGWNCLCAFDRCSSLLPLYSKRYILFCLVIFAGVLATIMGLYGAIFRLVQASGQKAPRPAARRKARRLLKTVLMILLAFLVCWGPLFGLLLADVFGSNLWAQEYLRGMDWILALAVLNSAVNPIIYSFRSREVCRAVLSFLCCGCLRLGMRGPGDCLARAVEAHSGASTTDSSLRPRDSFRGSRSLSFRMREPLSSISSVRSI
From the text: (§1) The Tango assay detects ligand-dependent GPCR activity through the interaction between β-arrestin and GPCRs. […] The NTEV fragment and the tetracycline transactivator (tTA), an artificial transcription factor, are fused at the C-terminus of the GPCR, while the CTEV fragment is fused to human β-arrestin 2. To enhance the stability of the interaction between GPCR and β-arrestin, a short sequence from the C-terminus of the human arginine vasopressin receptor 2 (V2 tail) is inserted between the GPCR and NTEV. The V2 tail contains multiple GRK phosphorylation sites, which strengthen β-arrestin binding upon phosphorylation. The CTEV fragment carries the stabile point mutation S219P and is truncated at residue 221 to remove the autoinhibitory C-terminal tail. Meanwhile, β-arrestin 2 is truncated to lack the entire C-terminal tail (residues 383-410 deleted). This truncation confers robust stimulus-dependent receptor desensitization, thereby improving detection sensitivity compared with wild-type β-arrestin 2. The UAS reporter construct consists of upstream activating sequence (UAS) elements, a minimal CMV promoter, and a tTA-dependent luciferase reporter gene. Therefore, constructing Tango cells requires the co-transfection of the above three plasmids into host cells. Upon GPCR activation and β-arrestin recruitment, the TEV enzyme at the β-arrestin terminus cleaves tTA from the GPCR C-terminus. The released tTA initiates tTA-dependent luciferase transcription, and compound activity is ultimately determined by measuring luminescence intensity.
(§2) • 1) Tango cell line from was digested from the culture dish respectively. After cell counting, the cells were plated at a density of 10,000 cells per well with […] into a white opaque 96-well plate (add 60 µL D'Hanks to the surrounding wells), and incubated overnight (20 h) in a 5% CO2 incubator at 37°C. The cell density will reach approximately 90% the next day. • 2) After 20 h, 30 µL of serially diluted compound solution was added to each well. The control group was supplemented with 30 µL F12K complete medium. Each group had three replicate wells. • 3) Samples were collected after 20 h of drug treatment.
(§3) (All compounds were tested at a final concentration of 45 µM, with 9 serial dilutions at 5-fold intervals. 1 µM BAF-312 was used as the positive control for S1PR1, and 25 µM BAF-312 was used as the positive control for S1PR4.)
(§4) ^a β-arrestin recruitment activity based on Tango-S1PR1-CHO-K1 and Tango-S1PR4-CHO-K1 cells, expressed as mean EC50 values ± SD. ^b FLIPR assays were performed using S1PR2-CHO and S1PR5-CHO cell lines, expressed as mean EC50 values ± SD. ^c β-arrestin recruitment activity based on PathHunter CHO-K1-S1PR3 cells, expressed as mean EC50 values ± SD. Data are the mean of at least two independent determinations, reported as mean ± SD (standard deviation).

hS1P1 = target: T2, hS1P1 (Homo sapiens, UniProt P21453); experiment: Tango β-arrestin recruitment assay, Tango-hS1P1-CHO; format: cell-based; conditions: final concentration 45 µM, 9 serial dilutions at 5-fold intervals; 20 h drug treatment; luciferase readout
T2 construct: expressed in transfected cells; host or cells: CHO-K1
T2 sequence (P21453 whole entry): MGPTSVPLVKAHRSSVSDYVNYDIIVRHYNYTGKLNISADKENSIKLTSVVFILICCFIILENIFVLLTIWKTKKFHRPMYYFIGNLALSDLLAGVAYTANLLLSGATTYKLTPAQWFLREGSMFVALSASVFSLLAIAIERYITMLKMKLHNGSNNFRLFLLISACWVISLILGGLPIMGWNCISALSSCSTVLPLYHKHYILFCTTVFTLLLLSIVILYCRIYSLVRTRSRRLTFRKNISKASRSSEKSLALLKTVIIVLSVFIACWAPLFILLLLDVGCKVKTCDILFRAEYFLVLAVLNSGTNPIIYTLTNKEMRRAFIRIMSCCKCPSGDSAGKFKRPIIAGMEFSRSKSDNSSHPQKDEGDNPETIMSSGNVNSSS
From the text: as §1, §2, §3, §4

[1] = test system: S1PR4-R82C/NDUFA10-R217W double-mutant mice; experiment: In vivo efficacy in S1PR4-R82C/NDUFA10-R217W double-mutant muscular dystrophy mice; conditions: 1 mg/kg intragastric once daily
Procedure: Experimental Animals: A total of 34 S1PR4-R82C/NDUFA10-R217W mice were divided into 6 groups as shown below.
Intragastric administration was initiated on Day 0, and body weight was measured daily during the experiment to adjust the drug dosage. Grip strength was measured at the beginning and end of the experiment to observe motor changes in mice. Changes in the limb grip strength, serum creatine kinase content, and muscle fibrosis/inflammation in mice were detected as indicators for evaluating drug efficacy.
(§5) The mouse was placed horizontally on the grip test board. The mouse's tail was held and pulled gently in the opposite direction without using excessive force. The tail was gradually pulled until the mouse released the grip force sensor. The maximum value recorded by the grip force sensor is the grip strength. The test was repeated for 3 times and the average value was taken.
(§6) After the completion of administration, blood was collected via the orbital sinus, allowed to stand for 30 minutes, centrifuged at 3000 rpm at 4°C for 15 minutes, and serum was extracted, stored frozen at -20°C, and detected in accordance with the kit instructions.
(§7) After the experiment, the tibialis anterior, extensor digitorum longus, and diaphragm of the mice were harvested, fixed, sectioned, and subjected to HE staining and Sirius Red staining to observe the degree of muscle fibrosis. The slice was subjected to immunofluorescence staining with F4/80 to observe the level of muscle inflammation.

[2] = test system: Duchenne muscular dystrophy model mice; experiment: In vivo pharmacodynamic test in Duchenne muscular dystrophy model mice (Compound 30)
Procedure: Experimental Animals: A total of 35 Duchenne muscular dystrophy model mice were divided into 6 groups as shown below.
Intragastric administration was initiated from Day 0. Body weight was measured daily during the experiment to adjust the drug dosage. Grip strength tests were performed every 2 days to observe changes in the mice's grip strength until the experiment concluded on Day 21. Changes in the limb grip strength, serum creatine kinase content, and muscle fibrosis/inflammation in the mice were detected as indicators for evaluating drug efficacy.
as §5, §6, §7

[3] = 1 mg/kg intragastric once daily

Compound	EC50 (hS1P4)	EC50 (hS1P1)	also measured
CCc1cc(/C(C)=N/OCc2ccc(-c3cnc(F)cn3)c(C)c2)ccc1CN1CCC(C(=O)O)C1 (stereo not drawn) [Compound 4, (E)-1-(2-ethyl-4-(1-(((4-(5-fluoropyrazin-2-yl)-3-methylbenzyl)oxy)imino)ethyl)benzyl)pyrrolidine-3-carboxylic acid]	10.6 ± 1.19 nM		
C/C(=N\OCc1ccc(C2CCCCC2)c(C(F)(F)F)c1)c1ccc(CN2CC(C(=O)O)C2)c(F)c1 [Compound 11]	573 ± 106 nM	5.63 ± 0.15 nM	
CCc1cc(/C(C)=N/OCc2cccc(C(F)(F)F)c2)ccc1CN1CC(C(=O)O)C1 [Compound 13]		5100 ± 1510 nM	
CCc1cc(/C(C)=N/OCc2ccc3ccccc3c2)ccc1CN1CC(C(=O)O)C1 [Compound 15]	560 ± 185 nM		
CCc1cc(/C(C)=N/OCc2ccc(OC(C)C)c(C#N)c2)ccc1CN1CC(C(=O)O)C1 [Compound 16, (E)-1-(4-(1-(((3-cyano-4-isopropoxybenzyl)oxy)imino)ethyl)-2-ethylbenzyl)azetidine-3-carboxylic acid]		23.2 ± 10.9 nM	
CCc1cc(/C(C)=N/OCc2ccc(-c3cncnc3)cc2)ccc1CN1CC[C@H](C(=O)O)C1 [Compound 70, (S, E)-1-(2-ethyl-4-(1-(((4-(pyrimidin-5-yl)benzyl)oxy)imino)ethyl)benzyl)pyrrolidine-3-carboxylic acid]	36.2 ± 6.58 nM		
CCc1cc(/C(C)=N/OCc2ccc(-c3cccs3)cc2)ccc1CN1CC[C@H](C(=O)O)C1 [Compound 73]	10.7 ± 0.11 nM		
CCc1cc(/C(C)=N/OCc2ccc(-c3cnsc3)cc2)ccc1CN1CC[C@H](C(=O)O)C1 [Compound 74]	13.13 ± 0.02 nM		
CCc1cc(/C(C)=N/OCc2ccc(-c3ccns3)cc2)ccc1CN1CC[C@H](C(=O)O)C1 [Compound 75]	34.17 ± 0.22 nM		
CCc1cc(/C(C)=N/OCc2ccc(-c3cnc(F)nc3)c(C)c2)ccc1CN1CC[C@H](C(=O)O)C1 [Compound 80, (S, E)-1-(2-ethyl-4-(1-(((4-(2-fluoropyrimidin-5-yl)-3-methylbenzyl)oxy)imino)ethyl)benzyl)pyrrolidine-3-carboxylic acid]	18 ± 0.525 nM		
CCc1cc(/C(C)=N/OCc2ccc(-c3cncnc3C)c(C)c2)ccc1CN1CC[C@H](C(=O)O)C1 [Compound 83, (S, E)-1-(2-ethyl-4-(1-(((3-methyl-4-(4-methylpyrimidin-5-yl)benzyl)oxy)imino)ethyl)benzyl)pyrrolidine-3-carboxylic acid]	40.95 ± 0.22 nM		
CCc1cc(/C(C)=N/OCc2ccc(-c3cnc(F)cn3)c(F)c2)ccc1CN1CC[C@H](C(=O)O)C1 [Compound 88, (S, E)-1-(2-ethyl-4-(1-(((3-fluoro-4-(5-fluoropyrazin-2-yl)benzyl)oxy)imino)ethyl)benzyl)pyrrolidine-3-carboxylic acid]	27.4 ± 1.12 nM	3210 ± 112 nM	
CCc1cc(/C(C)=N/OCc2ccc(-c3cnc(F)cn3)cc2)ccc1CN1CC[C@H](C(=O)O)C1 [Compound 89]	135 ± 17.8 nM	5250 ± 235 nM	
CCc1cc(/C(C)=N/OCc2ccc(-c3cnc(F)cn3)c(C)c2)ccc1CN1CCC(C(=O)O)CC1 [Compound 90, (E)-1-(2-ethyl-4-(1-(((3-methyl-4-(5-fluoropyrazin-2-yl)-benzyl)oxy)imino)ethyl)benzyl)piperidine-4-carboxylic acid]		5950 ± 72.8 nM	
CCc1cc(/C(C)=N/OCc2ccc(-c3cnc(F)cn3)c(C)c2)ccc1CN1CC(C(=O)O)C1 [Compound 91, (E)-1-(2-ethyl-4-(1-(((3-methyl-4-(5-fluoropyrazin-2-yl)-benzyl)oxy)imino)ethyl)benzyl)azetidine-3-carboxylic acid]		54.45 ± 0.2 nM	
CCc1cc(/C(C)=N/OCc2ccc(-c3cnc(F)cn3)c(C)c2F)ccc1CN1CC[C@H](C(=O)O)C1 [Compound 93, (S, E)-1-(2-ethyl-4-(1-(((2-fluoro-4-(5-fluoropyrazin-2-yl)-3-methylbenzyl)oxy)imino)ethyl)benzyl)pyrrolidine-3-carboxylic acid]	12 ± 1 nM	348 ± 40.4 nM	
CCc1cc(/C(C)=N/OCc2cc(C)c(-c3cnc(F)cn3)cc2F)ccc1CN1CC[C@H](C(=O)O)C1 [Compound 94, (S, E)-1-(2-ethyl-4-(1-(((2-fluoro-4-(5-fluoropyrazin-2-yl)-5-methylbenzyl)oxy)imino)ethyl)benzyl)pyrrolidine-3-carboxylic acid]	13.9 ± 1.48 nM	614 ± 50.2 nM	
CCc1cc(/C(C)=N/OCc2ccc(-c3cnc(F)cn3)c(C)c2)ccc1CN1CC[C@@H](C(=O)O)C1 [Compound 95, (R, E)-1-(2-ethyl-4-(1-(((4-(5-fluoropyrazin-2-yl)-3-methylbenzyl)oxy)imino)ethyl)benzyl)pyrrolidine-3-carboxylic acid]	75.4 ± 5.72 nM	125 ± 14.5 nM	
C[C@]12C=CC(=O)C=C1CC[C@@H]1[C@@H]2[C@@H](O)C[C@@]2(C)[C@H]1CC[C@]2(O)C(=O)CO [prednisolone, reference compound]			grip strength (ratio of grip strength to body weight) ([1]; after 21 days of treatment): significantly increased; collagen deposition (collagen area ratio) ([1]; after administration): significantly reduced collagen deposition; serum creatine kinase level ([1]; after treatment): no such lowering effect; also recorded: no reduction; body weight gain trend ([1]; compared with the model group): relatively slow; collagen deposition (collagen area ratio) [2, 3]: significantly reduced collagen deposition; number of centrally nucleated fibers (HE staining) [2, 3]: significantly reduced; serum creatine kinase level ([2]; 1 mg/kg intragastric once daily, after treatment): significantly reduced; body weight growth trend ([2]; 1 mg/kg intragastric once daily, compared with the model group): no difference; macrophage content (F4/80 immunofluorescence, muscle inflammation) ([2]; intragastric once daily): significantly reduced macrophage content
